Test results taken from article PMC11915803, “Class B scavenger receptor resists WSSV replication by recognizing the viral lipid molecule and promoting phagocytosis” (Journal of Virology, 2025).

Target: T1, PcSRB (rPcSRB)
T1 construct: recombinant, pET-32a(+) BamHI/XhoI, His-tagged, tag kept
Assay: microscale thermophoresis, RED-tris-NTA labelled protein
Assay type: binding, Procambarus clarkii
Conditions: PBS-T; His-tagged protein labelled, ligand unlabelled

- Kd: 4.5 µM
Structure (SMILES): CC(C)CCC[C@@H](C)[C@H]1CC[C@H]2[C@@H]3CC=C4C=CCC[C@]4(C)[C@H]3CC[C@]12C [CD3,5, cholesta-3,5-diene]
